Patent publication US20090069441A1, “Motuporamine Mimic Agents” (priority 2006, published 2009)
Where two headings read alike, the source gives them in different places.

Key:
[1] = tested on: polyamine transporter (PAT); assay: Ki for inhibition of [14C]spermidine uptake in L1210 cells; type: cell-based, mouse
Description: (§1) In terms of Table 1, L1210 cells are mouse leukemia cells and are the gold standard in terms of evaluating polyamine cytotoxicity data due to a plethora of prior data in this cell line for other polyamine structures. Clearly 7a was similar in all respects to 4a (Table 1). […] The lower the Ki value, the higher the affinity of the drug for the polyamine transporter (PAT) on the cell surface. Chinese hamster ovary (CHO) cells and a mutant line without an active PAT (CHO-MG) also evaluated the PAT selectivity of these drugs.
L1210 IC50 and Ki studies. […] The Ki values in Table 3 were determined for [^14C]spermidine uptake and reflect the affinity of the polyamine derivative for the polyamine transporter on the cell surface. With both parameters, one can determine whether high affinity for the transporter (e.g., low Ki value) translated into high cytotoxicity (e.g., low IC50 value), etc.
Ki procedure. The ability of the conjugates to interact with the polyamine transport system was determined by measuring competition by the conjugates against radiolabeled spermidine uptake in L1210 cells. Initially, the Km value of spermidine transport was determined as previously described (Clément et al., Biochem. J. 1995, 312, 933-938). The ability of conjugates to compete for [^14C]spermidine uptake were determined in L1210 cells by a 10-min uptake assay in the presence of increasing concentrations of competitor, using 1 μM [^14C]spermidine as substrate. Ki values for inhibition of spermidine uptake were determined using the Cheng-Prusoff equation (Cheng and Prusoff, Biochem. Pharmacol. 1973, 22, 3099-3108) from the IC50 value derived by iterative curve fitting of the sigmoidal equation describing the velocity of spermidine uptake in the presence of the respective competitor (Torossian et al., Biochem. J., 1996, 319, 21-26). L1210 cells were grown and maintained according to established procedures (Bergeron et al., J. Med. Chem. 2000, 43, 224-235) and were washed twice in HBSS prior to the transport assay.

CHO-MG cells = assay: Cytotoxicity in PAT-deficient CHO-MG cells; type: cell-based, Chinese hamster; conditions: Cricetulus griseus, CHO-MG
Description: as §1
(§2) CHO and CHO-MG studies. Chinese hamster ovary (CHO) cells were chosen along with a mutant cell line (CHO-MG) in order to comment on how the synthetic conjugates gain access to cells. The CHO-MG cell line is polyamine-transport deficient and was isolated after selection for growth resistance to methylglyoxalbis(guanylhydrazone), MGBG, (CH3C[═N—NHC(═NH)NH2]CH[═N—NHC(═NH)NH2]) using a single-step selection after mutagenesis with ethylmethanesulfonate (Mandel et al., J. Cell. Physiol., 1978, 97, 335-344; Byers et al., Biochem. J. 1989, 263, 745-752).
For the purposes of this study, the CHO-MG cell line represents cells with no PAT activity and provided a model for alternative modes of entry or action, which are independent of PAT. These alternative modes of entry include passive diffusion or utilization of another transporter. The alternative modes of action may also include interactions on the outer surface of the plasma membrane or other membrane receptor interactions.
(§3) Biological studies. Murine leukemia cells (L1210), CHO and CHO-MG cells were grown in RPMI medium supplemented with 10% fetal calf serum, glutamine (2 mM), penicillin (100 U/mL), streptomycin (50 μg/mL). L-Proline (2 μg/mL) was added to the culture medium for CHO-MG cells. Cells were grown at 37° C. under a humidified 5% CO2 atmosphere. […] Trypan blue staining was used to determine cell viability before the initiation of a cytotoxicity experiment. Cells in early to mid log-phase were used. IC50 determinations. Cell growth was assayed in sterile 96-well microtiter plates (Becton-Dickinson, Oxnard, Calif., USA). L1210 cells were seeded at 5e^4 cells/mL of medium (100 μL/well). CHO and CHO-MG cells were plated at 2e^3 cells/mL. Drug solutions (10 μL per well) of appropriate concentration were added at the time of seeding for L1210 cells and after an overnight incubation for the CHO cell lines. After exposure to the drug for 48 hr, cell growth was determined by measuring formazan formation from 3-(4,5-dimethylthiazol-2-yl)2,5-diphenyltetrazolium using a Titertek Multiskan MCC/340 microplate reader for absorbance (540 nm) measurements (Mosmann, T., J. Immunol. Methods 1983, 65, 55-63).

CHO cells [2] = assay: Cytotoxicity in CHO cells; type: cell-based, Chinese hamster; conditions: for IC50: Cricetulus griseus, CHO
Description: as §1, §2
In contrast, the parent CHO cell line represents a cell type with high PAT activity. Comparison of conjugate cytotoxicity in these two CHO lines provided an important screen to detect selective conjugate delivery via the PAT. For example, a conjugate with high utilization of the polyamine transporter would be very toxic to CHO cells, but less so to CHO-MG cells. In short, highly-selective PAT ligands should give high (CHO-MG/CHO) IC50 ratios.
as §3

[3] = biological target: polyamine transporter (PAT); conditions: data originally reported in Ref; read-out: L1210 Ki value; cited from earlier work
CHO cells [4] = conditions: data originally reported in Ref; cited from earlier work

| SMILES | Ki ([1]; [14C]spermidine uptake, 10-min, 1 μM substrate, read-out: L1210 Ki values) [µM] | IC50 (CHO-MG cells; absence of AG, 48 h, read-out: CHO-MG IC50 w/o AG) [µM] | IC50 (CHO-MG cells; in the presence of AG, 48 h at 37° C., read-out: CHO-MG IC50) [µM] | IC50 (CHO cells [2]; absence of AG, 48 h, read-out: CHO IC50 w/o AG) [µM] | IC50 (CHO cells [2]; in the presence of AG, 48 h at 37° C., read-out: CHO IC50) [µM] | CHOMG/CHO IC50 ratio in the absence of AG (CHO cells [2]; absence of AG) | IC50 Ratio (CHO-MG/CHO) w/o AG (CHO cells [2]; absence of AG) | IC50 Ratio (CHO-MG/CHO), a measure of PAT selectivity (CHO cells [2]; in the presence of AG) | CHOMG/CHO IC50 ratio (CHO cells [2]; with AG) | IC50 Ratio (CHO-MG/CHO) with AG (CHO cells [2]; with AG) | Ki [3] [µM] | IC50 Ratio (CHO-MG/CHO), a measure of PAT selectivity (CHO cells [4]) | Ki ([1]; new data, read-out: L1210 Ki value) [µM] | IC50 (CHO-MG cells; 48 h incubation, new data, read-out: CHO-MG IC50) [µM] | IC50 (CHO cells [2]; 48 h incubation, new data, read-out: CHO IC50) [µM] | IC50 Ratio (CHO-MG/CHO), a measure of PAT selectivity (CHO cells [2]; new data) |
| --- | --- | --- | --- | --- | --- | --- | --- | --- | --- | --- | --- | --- | --- | --- | --- | --- |
| NCCCCNCCCCNCc1c2ccccc2cc2ccccc12 [Compound 6b] | 1.8 | 7.05 | 66.7 | 1.74 | 0.45 | 4 | 4 | 148 | 148 | 148 | 1.8 | 148 |  |  |  |  |
| CCN(CCCNCCCN)Cc1c2ccccc2cc2ccccc12 [Compound 7a, N-(3-Amino-propyl)-N′-anthracen-9-ylmethyl-N′-ethyl-propane-1,3-diamine] |  |  |  |  |  |  |  |  |  |  |  |  | 23.5 | 4 | 5.3 | 0.8 |
